Laboratory results reported in patent US8771646B2, “Nicotinic acid and picolinic acid derived near-infrared fluorophores” (VisEn Medical, Inc., priority 2005, dated 2014).

Assay: Absorption and emission maxima in water
Type: physicochemical

Abs. max (water): 643 nm | Em. Max (water): 663 nm
Compound: O=C(O)c1ccc(C(=C\C=C2/Sc3ccccc3N2CCCS(=O)(=O)O)/C=C/c2sc3ccccc3[n+]2CCCS(=O)(=O)O)nc1 [Example 6]
